Data as given in the kinase profiling compilation of Christmann-Franck et al. (2016).

Columns and labels:
Test in all cases: KINOMEscan competition binding
Details in all cases: compound 10.0 µM
ACVR2A (human) = ACVR2A (human) (UniProt P27037)
AKT3 (human) = AKT3 (human) (UniProt Q9Y243)
BMPR1A (human) = BMPR1A (human) (UniProt P36894)
CDK17 (human) = CDK17 (human) (UniProt Q00537)
CDKL2 (human) = CDKL2 (human) (UniProt Q92772)
CHEK2 (human) = CHEK2 (human) (UniProt O96017)
CSK (human) = CSK (human) (UniProt P41240)
CSNK2A1 (human) = CSNK2A1 (human) (UniProt P68400)
DMPK (human) = DMPK (human) (UniProt Q09013)
[1] = tested on: EIF2AK4 KD2 (human), Q9P2K8 [S808G]
EPHA6 (human) = EPHA6 (human) (UniProt Q9UF33)
EPHA7 (human) = EPHA7 (human) (UniProt Q15375)
FER (human) = FER (human) (UniProt P16591)
FGFR2 (human) = FGFR2 (human) (UniProt P21802)
[2] = tested on: FLT3 (human), P36888 [N841I]
[3] = molecular target: JAK1 JH1 catalytic (human) (UniProt P23458)
[4] = molecular target: JAK1 JH2 pseudokinase (human) (UniProt P23458)
MAPK10 (human) = MAPK10 (human) (UniProt P53779)
MAPK4 (human) = MAPK4 (human) (UniProt P31152)
MST1R (human) = MST1R (human) (UniProt Q04912)
MST4 (human) = MST4 (human) (UniProt Q9P289)
NEK6 (human) = NEK6 (human) (UniProt Q9HC98)
NUAK2 (human) = NUAK2 (human) (UniProt Q9H093)
PAK1 (human) = PAK1 (human) (UniProt Q13153)
PIM1 (human) = PIM1 (human) (UniProt P11309)
PIM3 (human) = PIM3 (human) (UniProt Q86V86)
PRKCD (human) = PRKCD (human) (UniProt Q05655)
PRKG1 (human) = PRKG1 (human) (UniProt Q13976)
RIPK1 (human) = RIPK1 (human) (UniProt Q13546)
RPS6KA2 KD1 (human) = RPS6KA2 KD1 (human) (UniProt Q15349)
RPS6KA5 KD2 (human) = RPS6KA5 KD2 (human) (UniProt O75582)
STK3 (human) = STK3 (human) (UniProt Q13188)
STK35 (human) = STK35 (human) (UniProt Q8TDR2)
TAOK1 (human) = TAOK1 (human) (UniProt Q7L7X3)
TNK1 (human) = TNK1 (human) (UniProt Q13470)
TNK2 (human) = TNK2 (human) (UniProt Q07912)
TNNI3K (human) = TNNI3K (human) (UniProt Q59H18)
TYRO3 (human) = TYRO3 (human) (UniProt Q06418)
ZAP70 (human) = ZAP70 (human) (UniProt P43403)
TEK (human) = TEK (human) (UniProt Q02763)

CSK (human), sequence (P41240 whole entry, looked up): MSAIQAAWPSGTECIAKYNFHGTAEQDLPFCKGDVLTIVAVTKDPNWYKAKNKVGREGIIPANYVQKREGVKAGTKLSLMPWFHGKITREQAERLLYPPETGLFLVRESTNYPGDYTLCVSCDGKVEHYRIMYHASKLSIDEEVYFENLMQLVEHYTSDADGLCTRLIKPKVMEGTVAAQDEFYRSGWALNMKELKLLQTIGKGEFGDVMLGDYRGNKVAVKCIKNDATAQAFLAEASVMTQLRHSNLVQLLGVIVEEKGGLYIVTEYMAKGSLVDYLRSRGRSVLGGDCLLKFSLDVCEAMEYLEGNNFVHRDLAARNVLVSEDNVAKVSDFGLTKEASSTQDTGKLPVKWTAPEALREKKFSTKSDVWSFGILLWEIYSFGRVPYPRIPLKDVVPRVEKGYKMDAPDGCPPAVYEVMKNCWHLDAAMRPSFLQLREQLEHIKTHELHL
TNK2 (human), sequence (Q07912 whole entry, looked up): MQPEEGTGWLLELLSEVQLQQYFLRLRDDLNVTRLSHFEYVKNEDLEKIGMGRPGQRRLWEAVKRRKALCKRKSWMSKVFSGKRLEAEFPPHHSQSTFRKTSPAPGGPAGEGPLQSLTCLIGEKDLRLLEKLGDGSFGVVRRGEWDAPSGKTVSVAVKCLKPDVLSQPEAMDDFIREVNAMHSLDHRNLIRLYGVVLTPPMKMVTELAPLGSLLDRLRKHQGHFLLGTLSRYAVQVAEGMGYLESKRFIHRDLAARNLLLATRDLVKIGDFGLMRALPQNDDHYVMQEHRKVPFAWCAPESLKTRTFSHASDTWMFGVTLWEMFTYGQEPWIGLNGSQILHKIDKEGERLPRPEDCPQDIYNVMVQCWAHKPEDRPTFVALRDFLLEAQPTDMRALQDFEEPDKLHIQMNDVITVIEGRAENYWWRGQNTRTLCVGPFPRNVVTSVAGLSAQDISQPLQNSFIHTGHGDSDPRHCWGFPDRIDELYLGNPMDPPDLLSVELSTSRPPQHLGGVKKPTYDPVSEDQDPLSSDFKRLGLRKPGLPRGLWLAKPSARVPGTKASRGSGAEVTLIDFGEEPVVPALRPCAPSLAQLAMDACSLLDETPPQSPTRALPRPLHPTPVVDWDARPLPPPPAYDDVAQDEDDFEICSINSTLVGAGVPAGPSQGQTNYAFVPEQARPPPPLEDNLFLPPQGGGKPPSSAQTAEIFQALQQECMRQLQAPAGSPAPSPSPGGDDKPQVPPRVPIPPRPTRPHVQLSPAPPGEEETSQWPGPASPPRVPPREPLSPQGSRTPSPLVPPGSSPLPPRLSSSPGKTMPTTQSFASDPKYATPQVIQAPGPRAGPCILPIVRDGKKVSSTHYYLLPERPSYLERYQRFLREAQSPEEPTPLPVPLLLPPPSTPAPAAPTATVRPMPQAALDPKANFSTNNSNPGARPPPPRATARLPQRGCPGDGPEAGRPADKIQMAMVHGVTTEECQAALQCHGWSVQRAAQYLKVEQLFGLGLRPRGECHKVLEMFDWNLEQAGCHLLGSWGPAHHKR
JAK1 JH2 pseudokinase (human), sequence (P23458 whole entry, looked up): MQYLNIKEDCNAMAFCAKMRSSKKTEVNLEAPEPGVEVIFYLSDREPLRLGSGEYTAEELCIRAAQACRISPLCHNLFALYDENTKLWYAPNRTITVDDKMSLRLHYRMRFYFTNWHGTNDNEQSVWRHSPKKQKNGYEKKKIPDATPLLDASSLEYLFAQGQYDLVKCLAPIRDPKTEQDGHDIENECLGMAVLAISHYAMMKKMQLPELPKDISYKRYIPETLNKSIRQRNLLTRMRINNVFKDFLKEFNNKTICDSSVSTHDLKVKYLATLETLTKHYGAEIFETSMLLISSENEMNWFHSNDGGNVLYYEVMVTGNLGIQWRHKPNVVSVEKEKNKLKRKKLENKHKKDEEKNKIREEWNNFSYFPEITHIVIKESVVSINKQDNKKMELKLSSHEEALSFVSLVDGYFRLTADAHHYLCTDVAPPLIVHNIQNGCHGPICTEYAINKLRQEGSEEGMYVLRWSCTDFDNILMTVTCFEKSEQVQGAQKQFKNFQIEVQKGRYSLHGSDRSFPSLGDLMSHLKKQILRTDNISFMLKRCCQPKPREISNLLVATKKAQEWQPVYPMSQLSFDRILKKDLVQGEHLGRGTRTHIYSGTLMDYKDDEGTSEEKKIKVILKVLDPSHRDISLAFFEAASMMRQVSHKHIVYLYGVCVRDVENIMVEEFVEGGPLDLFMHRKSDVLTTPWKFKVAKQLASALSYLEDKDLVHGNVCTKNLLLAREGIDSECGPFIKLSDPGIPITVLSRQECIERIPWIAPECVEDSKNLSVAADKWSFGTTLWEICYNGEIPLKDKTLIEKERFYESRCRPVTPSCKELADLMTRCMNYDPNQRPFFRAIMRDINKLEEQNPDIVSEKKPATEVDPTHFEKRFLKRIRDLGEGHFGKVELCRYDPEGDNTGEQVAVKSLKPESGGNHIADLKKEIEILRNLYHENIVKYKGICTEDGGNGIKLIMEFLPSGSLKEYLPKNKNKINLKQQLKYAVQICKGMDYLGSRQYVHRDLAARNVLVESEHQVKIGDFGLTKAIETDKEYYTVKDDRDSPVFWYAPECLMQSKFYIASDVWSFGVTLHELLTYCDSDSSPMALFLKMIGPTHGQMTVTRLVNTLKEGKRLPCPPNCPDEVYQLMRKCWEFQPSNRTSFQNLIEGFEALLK
JAK1 JH1 catalytic (human), sequence (P23458 whole entry, looked up): as above
TNK1 (human), sequence (Q13470 whole entry, looked up): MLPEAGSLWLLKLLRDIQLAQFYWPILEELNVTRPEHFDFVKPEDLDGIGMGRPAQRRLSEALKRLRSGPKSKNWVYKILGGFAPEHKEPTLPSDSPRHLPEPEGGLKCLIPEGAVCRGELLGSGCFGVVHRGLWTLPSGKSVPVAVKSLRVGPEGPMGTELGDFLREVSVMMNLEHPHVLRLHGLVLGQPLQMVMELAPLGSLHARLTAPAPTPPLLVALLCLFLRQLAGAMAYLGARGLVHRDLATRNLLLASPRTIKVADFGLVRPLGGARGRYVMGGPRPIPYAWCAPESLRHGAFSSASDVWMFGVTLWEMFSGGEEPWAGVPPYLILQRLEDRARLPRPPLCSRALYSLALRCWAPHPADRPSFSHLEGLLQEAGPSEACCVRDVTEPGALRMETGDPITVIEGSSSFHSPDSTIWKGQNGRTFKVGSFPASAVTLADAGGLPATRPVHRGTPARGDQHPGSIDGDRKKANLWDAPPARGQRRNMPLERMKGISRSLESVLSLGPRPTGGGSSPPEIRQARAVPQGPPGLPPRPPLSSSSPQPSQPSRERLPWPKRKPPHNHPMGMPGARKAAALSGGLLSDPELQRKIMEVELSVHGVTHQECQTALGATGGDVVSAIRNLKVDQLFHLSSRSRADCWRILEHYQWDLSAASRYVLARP
MAPK4 (human), sequence (P31152 whole entry, looked up): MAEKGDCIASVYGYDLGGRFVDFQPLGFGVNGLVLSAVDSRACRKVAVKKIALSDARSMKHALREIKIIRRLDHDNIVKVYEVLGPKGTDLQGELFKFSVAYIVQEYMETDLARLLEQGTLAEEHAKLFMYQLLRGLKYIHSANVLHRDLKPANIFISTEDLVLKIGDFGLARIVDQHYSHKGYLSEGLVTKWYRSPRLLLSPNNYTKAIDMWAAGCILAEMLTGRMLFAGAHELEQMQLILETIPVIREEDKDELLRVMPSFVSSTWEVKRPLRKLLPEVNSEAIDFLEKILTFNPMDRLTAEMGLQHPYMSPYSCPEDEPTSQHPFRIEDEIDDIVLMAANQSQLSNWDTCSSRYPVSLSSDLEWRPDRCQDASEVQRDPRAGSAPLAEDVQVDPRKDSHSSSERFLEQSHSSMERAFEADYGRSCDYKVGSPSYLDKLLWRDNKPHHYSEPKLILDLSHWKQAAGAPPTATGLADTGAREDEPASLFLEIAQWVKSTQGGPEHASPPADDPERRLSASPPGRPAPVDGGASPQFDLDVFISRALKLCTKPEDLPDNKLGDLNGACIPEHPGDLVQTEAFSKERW
EPHA7 (human), sequence (Q15375 whole entry, looked up): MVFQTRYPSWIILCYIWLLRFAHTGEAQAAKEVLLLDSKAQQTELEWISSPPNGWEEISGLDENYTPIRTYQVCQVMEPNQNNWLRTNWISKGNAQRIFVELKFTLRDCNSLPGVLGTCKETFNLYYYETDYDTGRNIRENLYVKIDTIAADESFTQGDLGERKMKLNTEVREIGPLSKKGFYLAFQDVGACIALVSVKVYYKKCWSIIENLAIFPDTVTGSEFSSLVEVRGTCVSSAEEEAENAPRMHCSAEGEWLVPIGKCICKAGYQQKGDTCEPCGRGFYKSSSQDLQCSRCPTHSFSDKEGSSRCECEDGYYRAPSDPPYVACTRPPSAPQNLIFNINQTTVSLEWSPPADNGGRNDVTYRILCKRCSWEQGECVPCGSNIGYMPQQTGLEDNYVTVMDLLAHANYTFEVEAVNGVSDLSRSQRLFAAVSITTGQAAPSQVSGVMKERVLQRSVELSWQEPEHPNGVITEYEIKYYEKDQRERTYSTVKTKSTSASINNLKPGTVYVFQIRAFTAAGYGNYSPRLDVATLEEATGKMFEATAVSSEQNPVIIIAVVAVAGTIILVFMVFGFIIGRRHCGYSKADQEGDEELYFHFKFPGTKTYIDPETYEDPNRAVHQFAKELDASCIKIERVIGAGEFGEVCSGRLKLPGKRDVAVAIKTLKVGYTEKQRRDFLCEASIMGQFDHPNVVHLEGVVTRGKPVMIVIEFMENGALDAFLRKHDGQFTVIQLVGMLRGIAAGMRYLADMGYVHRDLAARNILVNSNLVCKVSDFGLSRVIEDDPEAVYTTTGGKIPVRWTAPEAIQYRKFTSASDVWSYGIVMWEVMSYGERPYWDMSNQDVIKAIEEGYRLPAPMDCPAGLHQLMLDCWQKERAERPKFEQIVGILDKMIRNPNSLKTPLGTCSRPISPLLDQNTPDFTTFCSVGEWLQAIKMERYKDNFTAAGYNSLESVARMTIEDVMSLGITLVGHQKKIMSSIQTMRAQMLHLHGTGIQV

Row | Structure (SMILES) | kinase still bound, per cent of control (AKT3 (human)) [%] | kinase still bound, per cent of control (BMPR1A (human)) [%] | kinase still bound, per cent of control (CDK17 (human)) [%] | kinase still bound, per cent of control (CDKL2 (human)) [%] | kinase still bound, per cent of control (CHEK2 (human)) [%] | kinase still bound, per cent of control (CSK (human)) [%] | kinase still bound, per cent of control (CSNK2A1 (human)) [%] | kinase still bound, per cent of control (DMPK (human)) [%] | kinase still bound, per cent of control [1] [%] | kinase still bound, per cent of control (EPHA6 (human)) [%] | kinase still bound, per cent of control (EPHA7 (human)) [%] | kinase still bound, per cent of control (FER (human)) [%] | kinase still bound, per cent of control (FGFR2 (human)) [%] | kinase still bound, per cent of control [3] [%] | kinase still bound, per cent of control [4] [%] | kinase still bound, per cent of control (MAPK10 (human)) [%] | kinase still bound, per cent of control (MAPK4 (human)) [%] | kinase still bound, per cent of control (MST1R (human)) [%] | kinase still bound, per cent of control (MST4 (human)) [%] | kinase still bound, per cent of control (NEK6 (human)) [%] | further results
1 | N#Cc1c(NC(=O)c2cccc3ccccc23)sc2c1CCCC2 | 82 | 96 | 93 | 97 | 84 | 95 | 89 | 83 | 82 | 94 | 84 | 92 | 100 | 78 | 90 | 0.95 | 90 | 95 | 79 | 92 | kinase still bound, per cent of control (ACVR2A (human)): 69%; kinase still bound, per cent of control [2]: 86%; kinase still bound, per cent of control (NUAK2 (human)): 95%; kinase still bound, per cent of control (PAK1 (human)): 100%; kinase still bound, per cent of control (PIM1 (human)): 100%; kinase still bound, per cent of control (PIM3 (human)): 100%; kinase still bound, per cent of control (PRKCD (human)): 100%; kinase still bound, per cent of control (PRKG1 (human)): 88%; kinase still bound, per cent of control (RIPK1 (human)): 87%; kinase still bound, per cent of control (RPS6KA2 KD1 (human)): 93%; kinase still bound, per cent of control (RPS6KA5 KD2 (human)): 95%; kinase still bound, per cent of control (STK3 (human)): 91%; kinase still bound, per cent of control (STK35 (human)): 64%; kinase still bound, per cent of control (TAOK1 (human)): 100%; kinase still bound, per cent of control (TNK1 (human)): 74%; kinase still bound, per cent of control (TNK2 (human)): 77%; kinase still bound, per cent of control (TNNI3K (human)): 52%; kinase still bound, per cent of control (TYRO3 (human)): 76%; kinase still bound, per cent of control (ZAP70 (human)): 87%
2 | CCOc1cc2ncc(C#N)c(Nc3ccc(OCc4ccccn4)c(Cl)c3)c2cc1NC(=O)/C=C/CN(C)C | 100 | 89 | 100 | 100 | 79 | 13 | 94 | 98 | 1.4 | 99 | 97 | 37 | 96 | 83 | 100 | 27 | 100 | 100 | 2 | 88 | kinase still bound, per cent of control (ACVR2A (human)): 100%; kinase still bound, per cent of control [2]: 64%; kinase still bound, per cent of control (NUAK2 (human)): 8.8%; kinase still bound, per cent of control (PAK1 (human)): 16%; kinase still bound, per cent of control (PIM1 (human)): 100%; kinase still bound, per cent of control (PIM3 (human)): 100%; kinase still bound, per cent of control (PRKCD (human)): 100%; kinase still bound, per cent of control (PRKG1 (human)): 94%; kinase still bound, per cent of control (RIPK1 (human)): 100%; kinase still bound, per cent of control (RPS6KA2 KD1 (human)): 88%; kinase still bound, per cent of control (RPS6KA5 KD2 (human)): 77%; kinase still bound, per cent of control (STK3 (human)): 1.4%; kinase still bound, per cent of control (TAOK1 (human)): 83%; kinase still bound, per cent of control (TEK (human)): 56%; kinase still bound, per cent of control (TNK1 (human)): 100%; kinase still bound, per cent of control (TNK2 (human)): 40%; kinase still bound, per cent of control (TNNI3K (human)): 100%; kinase still bound, per cent of control (TYRO3 (human)): 100%; kinase still bound, per cent of control (ZAP70 (human)): 87%
3 | COc1cc(N2CCN(C)CC2)ccc1Nc1nc(N)c(C(=O)c2c(Cl)cccc2Cl)s1 | 100 | 100 | 42 | 93 | 100 | 90 | 91 | 50 | 100 | 99 | 88 | 82 | 91 | 100 | 100 | 100 | 90 | 96 | 100 | 100 | kinase still bound, per cent of control [2]: 47%; kinase still bound, per cent of control (NUAK2 (human)): 60%; kinase still bound, per cent of control (PAK1 (human)): 91%; kinase still bound, per cent of control (PIM1 (human)): 100%; kinase still bound, per cent of control (PIM3 (human)): 100%; kinase still bound, per cent of control (PRKCD (human)): 68%; kinase still bound, per cent of control (PRKG1 (human)): 100%; kinase still bound, per cent of control (RIPK1 (human)): 100%; kinase still bound, per cent of control (RPS6KA2 KD1 (human)): 84%; kinase still bound, per cent of control (RPS6KA5 KD2 (human)): 96%; kinase still bound, per cent of control (STK3 (human)): 85%; kinase still bound, per cent of control (STK35 (human)): 100%; kinase still bound, per cent of control (TAOK1 (human)): 52%; kinase still bound, per cent of control (TEK (human)): 88%; kinase still bound, per cent of control (TNK1 (human)): 100%; kinase still bound, per cent of control (TNK2 (human)): 97%; kinase still bound, per cent of control (TNNI3K (human)): 82%; kinase still bound, per cent of control (TYRO3 (human)): 100%
4 | O=C(O)c1ccc(Nc2ncc3c(n2)-c2ccc(Cl)cc2C(c2c(F)cccc2F)=NC3)cc1 | 100 | 36 | 100 | 86 | 100 | 15 | 29 | 79 | 79 | 14 | 8.8 | 22 | 7.7 | 90 | 80 | 100 | 66 | 92 | 100 | 100 | kinase still bound, per cent of control (ACVR2A (human)): 95%; kinase still bound, per cent of control (NUAK2 (human)): 85%; kinase still bound, per cent of control (PAK1 (human)): 80%; kinase still bound, per cent of control (PIM1 (human)): 71%; kinase still bound, per cent of control (PIM3 (human)): 42%; kinase still bound, per cent of control (PRKCD (human)): 100%; kinase still bound, per cent of control (PRKG1 (human)): 100%; kinase still bound, per cent of control (RIPK1 (human)): 100%; kinase still bound, per cent of control (RPS6KA2 KD1 (human)): 100%; kinase still bound, per cent of control (RPS6KA5 KD2 (human)): 74%; kinase still bound, per cent of control (STK3 (human)): 48%; kinase still bound, per cent of control (TAOK1 (human)): 71%; kinase still bound, per cent of control (TEK (human)): 3%; kinase still bound, per cent of control (TNK1 (human)): 16%; kinase still bound, per cent of control (TNK2 (human)): 46%; kinase still bound, per cent of control (TNNI3K (human)): 85%; kinase still bound, per cent of control (TYRO3 (human)): 46%; kinase still bound, per cent of control (ZAP70 (human)): 100%
